Assay results from patent US20260374739A1, “SMALL MOLECULAR WEIGHT CHEMICAL COMPOUND TO ANTAGONIZE EPH-EPHRIN TETRAMERIZATION AND INHIBIT BIDIRECTIONAL SIGNALING” (THE BOARD OF REGENTS OF THE UNIVERSITY OF TEXAS SYSTEM, priority 2022, published 2026).

The compounds below were run against T1, EphB2-EphrinB2 (Mus musculus, UniProt P54763) (assay: EphrinB2 co-immunoprecipitation with EphB2 in mouse brain after dosing). Conditions: IP 10 mg/kg every 12 hr, 4 days.
T1 construct: Whole brain protein lysates were then prepared in a Dounce homogenizer; from tissue; host or cells: brain of wild-type mice
T1 sequence (P54763 19-986): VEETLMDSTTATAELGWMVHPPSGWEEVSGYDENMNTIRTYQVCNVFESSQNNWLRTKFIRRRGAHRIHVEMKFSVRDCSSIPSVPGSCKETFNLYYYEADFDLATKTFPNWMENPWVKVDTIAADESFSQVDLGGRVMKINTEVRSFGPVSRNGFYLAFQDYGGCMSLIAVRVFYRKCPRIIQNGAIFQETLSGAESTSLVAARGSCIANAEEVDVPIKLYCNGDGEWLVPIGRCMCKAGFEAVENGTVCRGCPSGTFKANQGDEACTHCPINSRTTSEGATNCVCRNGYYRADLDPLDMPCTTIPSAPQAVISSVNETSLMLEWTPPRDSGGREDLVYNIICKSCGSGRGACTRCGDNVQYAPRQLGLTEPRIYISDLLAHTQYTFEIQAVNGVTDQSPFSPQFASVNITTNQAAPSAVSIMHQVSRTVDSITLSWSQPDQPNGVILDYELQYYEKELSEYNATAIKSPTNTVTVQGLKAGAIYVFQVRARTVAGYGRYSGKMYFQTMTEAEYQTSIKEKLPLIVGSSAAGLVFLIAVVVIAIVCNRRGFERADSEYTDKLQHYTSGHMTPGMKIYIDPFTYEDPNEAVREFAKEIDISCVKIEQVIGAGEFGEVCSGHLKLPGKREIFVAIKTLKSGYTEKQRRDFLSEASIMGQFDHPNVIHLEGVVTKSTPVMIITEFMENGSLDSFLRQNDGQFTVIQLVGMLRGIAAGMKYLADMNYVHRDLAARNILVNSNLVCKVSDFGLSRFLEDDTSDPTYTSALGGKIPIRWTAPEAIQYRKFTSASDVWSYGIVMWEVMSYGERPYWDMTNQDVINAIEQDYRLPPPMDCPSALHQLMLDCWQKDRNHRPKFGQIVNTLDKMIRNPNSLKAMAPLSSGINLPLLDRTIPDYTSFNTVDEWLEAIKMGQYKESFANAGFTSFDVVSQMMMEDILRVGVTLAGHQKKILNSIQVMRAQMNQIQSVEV
Assay type: in vivo
Method: Wild-type mice aged 10-12 weeks were IP injected every 12 hr for four days with vehicle (PBS) or 10 mg/kg of 2×·HCl salt forms of A20 (in PBS), A20-I (in PBS), or 3511-I, in 94% PBS/6% DMSO) for a total of 8 injections. Exactly 2 hr after final injection of A20 chemical, brains were dissected and frozen at −80 °C. Whole brain protein lysates were then prepared in a Dounce homogenizer using 5 ml PLC lysis buffer, and 1 ml of lysate was used for immunoprecipitation (IP) with 1 μg goat anti-EphB2 antibody, followed by immunoblot (IB) analysis with goat anti-EphB2, rabbit anti-phosphoEphB1/B2 (pEphB1/B2), and mouse anti-EphrinB2 antibodies using appropriate HRP conjugated secondary antibodies and chemiluminescent detection methods.
FIG. 79A depicts an illustrative immunoblot showing expression of EphB2, phospho-EphB1/B2, and EphrinB2 (co-IP) in the mouse brains. […] The level of co-immunoprecipitated EphrinB2 from the brains of A20 chemical injected animals was generally lower as indicated by fainter bands. FIGS. 79B and 79C show quantification of band intensities (number of photons detected) to obtain ratios of pEphB/EphB2 as a measure of EphB2 receptor activation levels (FIG. 79B) and ratios of EphrinB2/EphB2 as a measure of how much EphrinB2 is co-immunoprecipitated with the EphB2 receptor (FIG. 79C).

| SMILES | association of EphrinB2 with EphB2 in brain |
| --- | --- |
| Oc1c(Br)cc(CN2CCOCC2)c2cccnc12 [Compound 5, 7-bromo-5-(morpholinomethyl)quinolin-8-ol] | reduced level of association with EphrinB2 |
| COc1ccccc1N1CCN(Cc2cc(I)c(O)c3ncccc23)CC1 [Compound 71, 7-iodo-5-((4-(2-methoxyphenyl)piperazin-1-yl)methyl)quinolin-8-ol] | reduced level of association with EphrinB2 |
| Oc1c(I)cc(CN2CCOCC2)c2cccnc12 [Compound 7, 7-iodo-5-(morpholinomethyl)quinolin-8-ol] | reduced level of association with EphrinB2 |
